In a melting point compilation (Tetko et al.; mined from patent text by program, amines drawn as free bases though some values may be those of a salt) one finds melting point data, which are given here for 88 molecules.

Where only a bound is given, the exact number is not on record here.

For orientation: melting point means the temperature of the solid-liquid transition.

In turn, `OCC12COC(O1)C(O)C(O)C2O` (stereo not drawn) gave a melting point of 166 to 168 °C.
To `Cc1cc(-n2ccc(OCc3ccccc3)cc2=O)oc1C(=O)NCc1ccccc1` belongs 191 to 192 °C.
In the case of `OCc1cc(NCCCCCCBr)ccc1O` it was 132 to 134 °C.
To `COc1cc2nc(=O)n3[nH]cnc3c2cc1OC` belongs 320 to 325 °C; to `COc1ccc(C(=O)Nc2ccc(F)cc2)cc1NC(=S)Nc1ccc(C(=O)O)cc1`, 203 to 205 °C.
With `N#Cc1cc(C=C2NC(=S)NC2=O)cc(O)c1O`, the melting point fell in the range of 210 to 213 °C.
In the case of `CCCOCCSc1ccc(-c2ccc3c(c2)C=C(C(=O)Nc2ccc(CN(C)C4CCOCC4)cc2)CCS3(=O)=O)cc1` it was 198 to 200 °C; in that of `Cc1ccc(CNc2nc(Nc3cccc(N)c3)nc(OCC(F)(F)F)n2)o1`, 75 to 77 °C.
In the case of `Cc1cccc(C)c1CCC(CCc1c[nH]cn1)CCc1c(C)cccc1C` it was 147 to 150 °C.
Molecule `CCCCc1ccc(NC(=O)c2ccc(N)cc2)cc1` displayed a melting point of 138 °C.
In the case of `O=C1NCCOc2cc([N+](=O)[O-])ccc21` it was 208 to 209 °C; in that of `CCCC(=O)Nc1ccc(Sc2ccccc2)cc1NC(=NC(=O)OC)NC(=O)OC`, 164 to 166 °C; in that of `CN1CC2CC(=NO)c3cccc4c3N2C(C1)c1ccccc1C4` (stereo not drawn), 209 to 210 °C.
For the molecule `CC(C)(C)N(NC(=O)c1ccccn1)C(=O)c1ccccc1Br`, the melting point fell in the range of 179 to 180 °C.
In the case of `Cc1ccccc1NC(=O)CN1CC2CCC(C1)N2S(=O)(=O)c1ccccc1`, the melting point lay within 169 to 170 °C.
To `O=C1N[C@H](c2ccccc2)CSC[C@@H]1N1C(=O)c2ccccc2C1=O` belongs 280 to 282 °C; to `C=C(C[C@@H](Cc1ccccc1)C(=O)N1CCOCC1)[C@H](C)[C@H](Cc1ccccc1)C(=O)N1CCOCC1` (relative stereo), 125 to 126 °C.
In the case of `COc1nc2ccccc2nc1NC(=S)N1CCN(c2ccccc2SC)CC1` it was 148 to 150 °C; in that of `CCN1C(=O)N(c2cccc(C#N)c2C(F)(F)F)C(=O)C1(C)COC(=O)C(C)C` (stereo not drawn), 85 °C; in that of `CCCCC(CC)COc1ccc2c(-c3ccc(CO)cc3)c3cc(OCC(CC)CCCC)ccc3c(-c3ccc(CO)cc3)c2c1` (stereo not drawn), 110 to 112 °C.
With `CC12CC(=O)C3C(CCC4CC(O)CCC43C)C1CCC2C(=O)CCO` (stereo not drawn), the melting point is 156 to 158 °C.
In turn, `CC(C)Oc1cc(CO)n(Cc2ccc(Cl)cc2Cl)n1` showed a melting point of 89 to 90 °C.
To `CCCCNc1c(C(=O)OCC)cnc2nn(C)cc12` belongs 95 to 97 °C; to `O=c1cc(-c2cncnc2)oc2c(O)c(O)ccc12`, over 300 °C.
For the molecule `CCCCCCCc1c(C)[nH]c(C(=O)OCC)c1C`, the melting point fell in the range of 47 to 49 °C.
In the case of `Cc1cc(C)cc(C(=O)N2CCN(C(=O)CNC3CCN(Cc4ccc(-c5ccccc5)cc4)CC3)C(c3ccc(Cl)c(Cl)c3)C2)c1` (racemic) it was 87 to 89 °C; in that of `O=C(O)c1cn(C2CC2)c2c(F)c(N3CCCC(n4ccnn4)C3)c(F)cc2c1=O` (stereo not drawn), 239 to 240 °C.
To `Cc1cn([C@H]2CC[C@H](CC(=O)O)C[C@@H]2NC(=O)OC(C)(C)C)c(=O)[nH]c1=O` belongs 231 to 233 °C; to `O=c1[nH]c2cscc2c(=O)n1CCN1CCN(c2ccccc2)CC1`, over 250 °C; to `Cc1cc(O)cc(C)c1N=Cc1ccc(O)cc1O`, 193 to 197 °C.
In the case of `CCn1ccc(=O)c2cnc(-c3cccnc3)nc21` it was 195 to 196 °C; in that of `CS(=O)(=O)c1ccc(C(Cc2ccc(F)cc2)C(=O)Nc2nc3ncccc3o2)cc1` (stereo not drawn), 261 to 264 °C; in that of `Nc1ccc2c(c1)COC2=O`, 177 to 189 °C.
Consider `COC(=O)Nc1nc2ccc(S(=O)c3ccccc3)cn2c1Br` (stereo not drawn), for which the melting point fell in the range of 150 to 152 °C.
In the case of `Cn1c(C(F)(F)F)cc(=O)n(-c2cc(OCCC3OCCCO3)c(Cl)cc2F)c1=O` it was 128 to 130 °C; in that of `CCC(C)(CCCCCCC(C)(CC)C(=O)O)C(=O)O` (stereo not drawn), 117 to 118 °C; in that of `COC1=C(c2cccc(C(F)(F)F)c2)C(=O)OC1`, 126 °C.
Take `CCN1CCN(Cc2ccc3c(c2)Cc2c(-c4cccs4)n[nH]c2-3)CC1`: the melting point was found to be 170 °C.
In the case of `CCS(=O)(=O)Nn1c(=O)[nH]c2cc(C(F)(F)F)c(-n3cnnc3)cc2c1=O` it was 185 to 195 °C; in that of `CCOc1ccc2c(c1)n(C1CCCCC1)c(=O)n2Cc1ccc(NC(=O)N(CC)CC)cc1OC`, 158 °C; in that of `CC1(C)OC(=S)Nc2ccc(-c3cc(C#N)cs3)cc21`, 258 to 259 °C.
As to `C=CC(=O)Nc1cccc(CCCc2n[nH]c3cc(C)nn23)c1`, the melting point is 195 to 197 °C.
To `C=CCN1C2CCC1C1CCC2N1C(c1ccc(C(=O)N2CCCC2)cc1)c1cccc(O)c1` (stereo not drawn) belongs 156 to 158 °C.
To `Nc1nc2c(s1)C(=O)c1ccccc1C2=O` belongs over 260 °C; to `CCSc1ccc(C(=O)NCc2ccc3c(c2)C(=O)N(C2CCC(=O)NC2=O)C3=O)nc1` (stereo not drawn), 198 to 200 °C.
To `Cc1cc(-c2nc3cccnn3c2-c2ccnc(NC(=O)c3cncc(Cl)c3)c2)ccc1F` belongs 252 to 254 °C.
Take `COc1ccc(Nc2nc(Cl)nc(Cl)n2)cc1Cl`: the melting point was 165 °C.
To `CC(=O)NC[C@H]1CN(c2ccc(-n3nccc3-c3ccc(C)cc3)c(F)c2)C(=O)O1` belongs 89.5 to 91.9 °C; to `CCSc1nccnc1C(=O)CC`, 45 to 48 °C.
With `O=c1c2cc3ccccc3cc2oc2cc(OCC3CO3)cc(OCC3CO3)c12` (stereo not drawn), the melting point was in the range of 181 to 182 °C.
To `COC(=O)C1CCc2sc3ccccc3c2C1=O` (stereo not drawn) belongs 158 to 160 °C.
In the case of `CC(C)Cn1c(=O)n(C)c(=O)c2cn(Cc3cccc4ccccc34)nc21`, the melting point came to 178 °C.
In the case of `COc1ccc(-c2nn(Cc3ccncc3)c(=O)cc2-c2ccncc2)cc1` it was 193 to 194 °C.
To `C=Cc1cn(S(=O)(=O)c2ccc(C)cc2)c2ccc(C#N)cc12` belongs 134 to 135 °C; to `C=CCn1c(=O)c2c(nc(/C=C/c3cc(OC)c(OC(C)=O)c(OC)c3)n2C)n(CC=C)c1=O`, 220 to 221 °C; to `Nc1nc(N)nc(-c2ccc(S(=O)(=O)N3CCCCC3)cc2)n1`, over 260 °C.
To `COc1ccc([C@]2(C)CNC(=O)O2)cc1OCC(C)C` belongs 93.7 °C; to `CCn1cc(-c2nnnn2C)c(=O)c2ccccc21`, 170 to 176 °C.
`OC1(CCc2ccc3[nH]cc(C4CCNCC4)c3c2)CCCC1` gave a melting point of 190 to 191 °C.
In the case of `CCn1ncc2c3noc(-c4ccc(Cl)cc4)c3cnc21` it was 248 to 250 °C.
To `CN(C)c1cc2ccc(OCc3ccccc3)cc2s1` belongs 78 to 81 °C; to `COc1cc(C(=O)O)c(C(=O)O)c(Cl)c1Cl`, 218 to 220 °C; to `O=C(Nc1ccc(Oc2ccnc(NCCN3CCOCC3)n2)c2ccccc12)c1cc(F)cc(N2CCOCC2)c1`, 112 to 114 °C.
To `CCOC=Cc1c(OC)c(=O)[nH]c2cc(Cl)ccc2c1=O` belongs 202 to 204 °C; to `CS(=O)(=O)N(CCCl)N(C(=O)NCCCCl)S(C)(=O)=O`, 85 to 86 °C.
Molecule `CC(C)(C)OC(=O)NS(=O)(=O)N1CCC(F)(F)CC1` returned a melting point of 82 to 83 °C.
In the case of `Nc1nc(=O)n([C@@H]2CC[C@H](CO)O2)cc1F` it was 147 to 149 °C.
In the case of `Cc1cccc(-n2nc(C)cc2-c2ccnc(NCCc3ccccc3)c2)c1` it was 86 to 87 °C; in that of `CCc1cc(-c2ccc(OC)cc2)n(-c2ccc(S(N)(=O)=O)cc2)c1`, 154 to 156 °C.
In the case of `CC(=O)OC1CCC2C3CCC4C(=O)CCCC4(C)C3CCC12C` (stereo not drawn) it was 160 to 163 °C; in that of `Cc1cc(Cl)cc(Cl)c1CNc1c(N[C@H](C)C(C)(C)C)c(=O)c1=O`, over 300 °C; in that of `Cc1ccc(-c2ccc3c(c2)C=C(C(=O)Nc2ccc(CS(=O)(=O)C4CCCCC4)cc2)CCO3)cc1`, 250 to 251 °C.
For `CCCC(C)(C)C(=O)NC1CCCNC(=O)C1` (stereo not drawn), the melting point fell in the range of 84 to 85 °C.
As to `COc1ccc(CCc2ccncc2NC(=O)c2ccccc2)cc1OC1CCCC1`, the melting point lay in the range of 50 to 51 °C.
To `O=S(=O)(c1ccc(O)cc1)c1ccccn1` belongs 148 °C; to `CCn1nnc(NC(=O)C2c3ccccc3Cc3ccccc32)n1`, 206 to 207 °C.
As for `O=C(O)c1ccc(-c2ccc3cc(CCO)c(C45CC6CC(CC(C6)C4)C5)cc3c2)cc1`, the melting point was in the range of 276 to 278 °C.
In the case of `CC(Cc1ccc(S(=O)(=O)NC(=O)NC2CCCCC2)cc1)NC(=O)N1Cc2ccccc2C1=O` (stereo not drawn) it was 197 to 198 °C; in that of `N#CC1(Cl)C=C(OCc2ccccc2)C=NC1` (stereo not drawn), 114 to 115 °C.
To `CC(=O)OC1CSC(Oc2ccc(Cl)nc2)C(OC(C)=O)C1OC(C)=O` (stereo not drawn) belongs 141 °C; to `CCOC(=O)C(Br)=C(Br)c1ccc(Cl)cc1`, 67 to 68 °C; to `CN1C(=O)C2(COc3cc4c(cc32)OCO4)c2c(Br)cccc21` (stereo not drawn), 155 to 157 °C.
In the case of `Nc1ncnc2c1ncn2CCCN1CCC(COc2ccccc2)CC1` it was 142 to 144 °C; in that of `CC1(C)Oc2ccc(C#N)cc2C(n2ccc(-c3ccc([N+](=O)[O-])cc3)cc2=O)C1O` (stereo not drawn), 278 to 284 °C; in that of `N#Cc1nc(-c2cnn(-c3c(Cl)cc(C(F)(F)F)cc3Cl)c2Br)[nH]c1C#N`, 167 to 170 °C.
Take `CC(=O)N1CCC(Oc2ccccc2N2CCCCC2)CC1`: the melting point was in the range of 69 to 70 °C.
To `CCOC(=O)Cn1c2c(c3c(Cl)cc(Cl)cc31)CCN(C(=O)OC(C)(C)C)CC2` belongs 144 to 147 °C.
To `CC(=O)Nc1c(C(=O)c2ccc(C)cc2)[nH]c2cc(Cl)ccc12` belongs 140 to 143 °C.
